Assay [1] deals with T1, Tyrosine-protein kinase receptor UFO (Homo sapiens, UniProt P30530).
T1 sequence (P30530 whole entry): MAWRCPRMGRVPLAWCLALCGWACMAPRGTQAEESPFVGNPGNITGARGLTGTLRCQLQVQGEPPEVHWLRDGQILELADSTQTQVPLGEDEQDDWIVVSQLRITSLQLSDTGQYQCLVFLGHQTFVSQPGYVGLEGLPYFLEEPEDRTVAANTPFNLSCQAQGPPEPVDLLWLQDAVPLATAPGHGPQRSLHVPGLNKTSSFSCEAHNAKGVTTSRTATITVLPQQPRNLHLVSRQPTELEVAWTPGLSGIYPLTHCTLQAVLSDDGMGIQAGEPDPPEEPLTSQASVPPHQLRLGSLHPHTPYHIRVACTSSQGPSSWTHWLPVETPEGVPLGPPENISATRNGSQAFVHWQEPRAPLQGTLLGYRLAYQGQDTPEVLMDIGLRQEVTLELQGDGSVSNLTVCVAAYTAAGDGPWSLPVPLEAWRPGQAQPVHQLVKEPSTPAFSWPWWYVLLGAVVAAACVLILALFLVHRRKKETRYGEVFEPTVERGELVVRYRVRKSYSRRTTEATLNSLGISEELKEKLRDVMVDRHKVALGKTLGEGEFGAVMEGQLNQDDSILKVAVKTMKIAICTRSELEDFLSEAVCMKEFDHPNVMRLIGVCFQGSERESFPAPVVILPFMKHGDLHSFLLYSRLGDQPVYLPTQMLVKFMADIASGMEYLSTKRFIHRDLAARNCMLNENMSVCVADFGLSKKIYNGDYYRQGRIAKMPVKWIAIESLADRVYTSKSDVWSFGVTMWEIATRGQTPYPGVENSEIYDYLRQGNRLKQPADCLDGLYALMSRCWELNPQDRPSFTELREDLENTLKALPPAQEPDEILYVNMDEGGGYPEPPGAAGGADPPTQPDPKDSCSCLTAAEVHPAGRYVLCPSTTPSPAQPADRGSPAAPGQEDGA
Description: Inhibition of Axl (unknown origin) by cell free assay.

Assay [2] addresses T2, Tyrosine-protein kinase Mer (Homo sapiens, UniProt Q12866).
T2 sequence (Q12866 whole entry): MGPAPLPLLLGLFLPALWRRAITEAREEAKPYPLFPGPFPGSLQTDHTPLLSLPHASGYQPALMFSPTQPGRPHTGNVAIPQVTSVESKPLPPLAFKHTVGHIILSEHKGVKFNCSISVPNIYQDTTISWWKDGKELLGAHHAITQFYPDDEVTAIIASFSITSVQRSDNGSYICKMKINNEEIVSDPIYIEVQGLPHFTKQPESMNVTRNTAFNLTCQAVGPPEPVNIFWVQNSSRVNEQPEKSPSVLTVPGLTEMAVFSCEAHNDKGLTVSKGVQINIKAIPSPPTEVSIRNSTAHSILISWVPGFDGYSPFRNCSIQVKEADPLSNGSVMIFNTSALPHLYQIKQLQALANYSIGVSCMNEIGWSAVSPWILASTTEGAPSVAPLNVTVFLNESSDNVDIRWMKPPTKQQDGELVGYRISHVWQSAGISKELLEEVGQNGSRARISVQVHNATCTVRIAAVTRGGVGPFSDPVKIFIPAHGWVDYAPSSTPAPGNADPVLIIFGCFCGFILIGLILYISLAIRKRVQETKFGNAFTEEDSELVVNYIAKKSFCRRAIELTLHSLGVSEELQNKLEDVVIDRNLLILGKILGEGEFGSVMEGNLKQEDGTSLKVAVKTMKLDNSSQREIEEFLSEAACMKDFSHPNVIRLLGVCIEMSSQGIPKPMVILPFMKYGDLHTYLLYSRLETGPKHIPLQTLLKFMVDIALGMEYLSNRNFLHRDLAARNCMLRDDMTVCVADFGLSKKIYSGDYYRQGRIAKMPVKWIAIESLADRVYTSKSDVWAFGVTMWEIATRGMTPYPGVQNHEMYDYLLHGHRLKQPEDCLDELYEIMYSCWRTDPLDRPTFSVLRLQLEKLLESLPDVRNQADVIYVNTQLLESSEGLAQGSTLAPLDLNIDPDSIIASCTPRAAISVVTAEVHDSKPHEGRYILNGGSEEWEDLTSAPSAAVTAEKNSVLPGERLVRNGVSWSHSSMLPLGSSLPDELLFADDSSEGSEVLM
Description: Inhibition of Mer (unknown origin) by cell free assay.

The species named for the next assay is Homo sapiens. Description: Ratio of IC50 for Mer (unknown origin) to IC50 for Axl (unknown origin).
Assay [3] concerns the target T3, Tyrosine-protein kinase receptor UFO (Mus musculus, UniProt Q00993).
T3 sequence (Q00993 whole entry): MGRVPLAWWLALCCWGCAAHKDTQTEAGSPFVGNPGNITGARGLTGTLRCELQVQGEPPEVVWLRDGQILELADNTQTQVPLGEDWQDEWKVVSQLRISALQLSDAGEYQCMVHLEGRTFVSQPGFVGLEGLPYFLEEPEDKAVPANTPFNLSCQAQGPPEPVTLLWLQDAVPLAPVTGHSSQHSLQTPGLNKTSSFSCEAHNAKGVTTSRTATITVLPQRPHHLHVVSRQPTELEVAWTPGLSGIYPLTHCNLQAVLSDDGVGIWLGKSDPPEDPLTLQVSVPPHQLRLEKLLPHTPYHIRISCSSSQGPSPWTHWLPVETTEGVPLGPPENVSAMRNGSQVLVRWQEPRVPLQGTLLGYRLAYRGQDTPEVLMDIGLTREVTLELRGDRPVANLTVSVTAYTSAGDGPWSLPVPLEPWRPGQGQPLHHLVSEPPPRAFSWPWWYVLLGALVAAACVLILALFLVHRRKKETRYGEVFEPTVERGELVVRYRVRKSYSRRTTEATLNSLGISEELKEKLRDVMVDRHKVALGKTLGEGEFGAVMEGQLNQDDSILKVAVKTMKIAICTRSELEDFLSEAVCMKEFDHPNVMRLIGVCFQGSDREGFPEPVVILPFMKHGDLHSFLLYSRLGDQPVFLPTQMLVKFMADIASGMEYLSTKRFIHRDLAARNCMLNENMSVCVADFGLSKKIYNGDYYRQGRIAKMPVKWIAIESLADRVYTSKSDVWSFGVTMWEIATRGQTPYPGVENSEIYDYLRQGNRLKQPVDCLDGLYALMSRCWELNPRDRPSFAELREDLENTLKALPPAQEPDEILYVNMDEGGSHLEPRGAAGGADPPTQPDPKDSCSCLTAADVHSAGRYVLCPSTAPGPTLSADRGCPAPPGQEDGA
Description: Inhibition of Axl in mouse BaF3 cells. The format is cell-based.

Assay [4] has as its target T4, Tyrosine-protein kinase Mer (Mus musculus, UniProt Q60805).
T4 sequence (Q60805 whole entry): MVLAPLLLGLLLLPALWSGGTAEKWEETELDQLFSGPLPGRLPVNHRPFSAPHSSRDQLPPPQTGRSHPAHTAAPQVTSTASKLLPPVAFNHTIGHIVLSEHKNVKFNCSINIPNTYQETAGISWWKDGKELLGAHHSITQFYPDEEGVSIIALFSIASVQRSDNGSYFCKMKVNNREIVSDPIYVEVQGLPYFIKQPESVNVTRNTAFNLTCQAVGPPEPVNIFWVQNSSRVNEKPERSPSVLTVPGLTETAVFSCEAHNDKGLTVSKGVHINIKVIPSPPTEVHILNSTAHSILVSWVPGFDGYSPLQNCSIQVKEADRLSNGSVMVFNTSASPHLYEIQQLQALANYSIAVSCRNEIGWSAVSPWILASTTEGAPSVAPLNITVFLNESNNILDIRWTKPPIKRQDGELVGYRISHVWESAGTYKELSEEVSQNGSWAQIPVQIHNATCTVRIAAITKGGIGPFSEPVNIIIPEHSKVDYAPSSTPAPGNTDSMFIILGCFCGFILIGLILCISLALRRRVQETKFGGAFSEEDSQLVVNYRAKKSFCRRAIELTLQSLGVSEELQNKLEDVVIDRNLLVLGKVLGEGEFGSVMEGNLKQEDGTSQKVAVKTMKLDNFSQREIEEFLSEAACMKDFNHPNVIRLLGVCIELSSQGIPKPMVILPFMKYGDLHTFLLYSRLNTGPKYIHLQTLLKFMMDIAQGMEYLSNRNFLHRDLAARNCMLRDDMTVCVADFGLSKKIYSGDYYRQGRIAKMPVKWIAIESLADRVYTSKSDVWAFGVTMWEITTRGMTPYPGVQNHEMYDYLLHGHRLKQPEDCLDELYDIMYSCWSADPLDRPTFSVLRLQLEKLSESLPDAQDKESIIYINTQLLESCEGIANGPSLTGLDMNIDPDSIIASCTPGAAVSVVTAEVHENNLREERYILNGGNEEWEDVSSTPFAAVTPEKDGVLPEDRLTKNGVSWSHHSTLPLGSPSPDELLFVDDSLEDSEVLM
The assay is described as follows: Inhibition of Mer in mouse BaF3 cells. It counts as cell-based.

A further assay concerns BaF3. The assay is described as follows: Ratio of IC50 for Mer in mouse BaF3 cells to IC50 for Axl in mouse BaF3 cells. The format is cell-based.

Where only a bound is given, the exact number is not on record here.

Usually IC50 stands for the concentration needed to halve the response being measured. Lower therefore signals greater potency in that assay. As for `CC(C)n1cc(C(=O)Nc2ccc(Oc3ncnc4c3CCN(CC3CCN(C)CC3)C4)c(F)c2)c(=O)n(-c2ccc(F)cc2)c1=O`, the IC50 in assay [1] is 3.7 nM; in assay [2], 74 nM; in assay [3], 15 nM; in assay [4] it was 78 nM. The Ratio IC50 in the assay listed under Homo sapiens is 20; with BaF3, 5.2.

Consider `CC(C)n1cc(C(=O)Nc2ccc(Oc3ncnc4c3CCN(C(=O)C3CCN(C)CC3)C4)c(F)c2)c(=O)n(-c2ccc(F)cc2)c1=O`, for which the IC50 turned out to be 12 nM in assay [1], 500 nM in assay [2], 120 nM in assay [3] and 630 nM in assay [4]. For the same molecule, the Ratio IC50 in the assay filed under Homo sapiens was found to be 42; with BaF3, 5.3.

On to `CC(C)n1cc(C(=O)Nc2ccc(Oc3ncnc4c3CCN(C(=O)C3CCC3)C4)c(F)c2)c(=O)n(-c2ccc(F)cc2)c1=O`, for which the IC50 in assay [1] was 5.3 nM; in assay [2], above 1000 nM; in assay [3] it was 100 nM; in assay [4], 440 nM. Also, the results for the Ratio IC50 in the assay filed under Homo sapiens and with BaF3 were above 189 and 4.4, respectively.

Take `CC(C)n1cc(C(=O)Nc2ccc(Oc3ncnc4c3CCN(C3CCN(CC5CC5)CC3)C4)c(F)c2)c(=O)n(-c2ccc(F)cc2)c1=O`: the IC50 in assay [1] came out at 3.5 nM; in assay [2] it was 34 nM; in assay [3] it was 20 nM; in assay [4], 79 nM. Also, the Ratio IC50 in the assay filed under Homo sapiens worked out at 9.7; in the assay on BaF3, 4.

Turning to `CC(C)n1cc(C(=O)Nc2ccc(Oc3ncnc4c3CCN(C3CCN(C)CC3)C4)c(F)c2)c(=O)n(-c2ccc(F)cc2)c1=O`, the IC50 turned out to be 5.6 nM in assay [1], 31 nM in assay [2], 13 nM in assay [3] and 55 nM in assay [4]. Besides, the Ratio IC50 is 5.5 in the assay listed under Homo sapiens and 4.2 in the assay with BaF3.

Take `CC(C)n1cc(C(=O)Nc2ccc(Oc3ncnc4c3CCN(C(=O)CC3CCN(C)CC3)C4)c(F)c2)c(=O)n(-c2ccc(F)cc2)c1=O`: the IC50 was 4.3 nM in assay [1], 88 nM in assay [2], 29 nM in assay [3] and 150 nM in assay [4]. Moreover, the Ratio IC50 in the assay listed under Homo sapiens was found to be 20; in the assay with BaF3, 5.2.

`CC(C)n1cc(C(=O)Nc2ccc(Oc3ncnc4c3CCN(C(=O)CCN3CCCC3)C4)c(F)c2)c(=O)n(-c2ccc(F)cc2)c1=O`: the IC50 was 7.8 nM in assay [1], 240 nM in assay [2], 74 nM in assay [3] and 290 nM in assay [4]. For the same molecule, the Ratio IC50 in the assay filed under Homo sapiens is 31; in the assay on BaF3, 3.9.

Turning to `Cc1ccc(-n2c(=O)c(C(=O)Nc3ccc(Oc4ncnc5c4CCN(CC4CCN(C)CC4)C5)c(F)c3)cn(CC3CC3)c2=O)nc1`, the IC50 in assay [1] amounted to 5.3 nM; in assay [2], 270 nM; in assay [3], 34 nM; in assay [4] it was 210 nM. In addition, the Ratio IC50 in the assay filed under Homo sapiens came out at 51; in the assay on BaF3, 6.2.

On to `CC(C)n1cc(C(=O)Nc2ccc(Oc3ncnc4c3CN(C(=O)CCN3CCCC3)C4)c(F)c2)c(=O)n(-c2ccc(F)cc2)c1=O`, for which the IC50 was 15 nM in assay [1], 160 nM in assay [2], 120 nM in assay [3] and 280 nM in assay [4]. Moreover, the Ratio IC50 in the assay filed under Homo sapiens is 11; in the assay with BaF3, 2.3.

Take `CC(C)n1cc(C(=O)Nc2ccc(Oc3ncnc4c3CN(C(=O)CC3CCN(C)CC3)C4)c(F)c2)c(=O)n(-c2ccc(F)cc2)c1=O`: the IC50 is 3.4 nM in assay [1], below 4.1 nM in assay [2], 17 nM in assay [3] and 39 nM in assay [4]. The Ratio IC50 in the assay filed under Homo sapiens was below 1.2; in the assay with BaF3, 2.3.

Turning to `CC(C)n1cc(C(=O)Nc2ccc(Oc3ncnc4c3CCN(C)C4)c(F)c2)c(=O)n(-c2ccc(F)cc2)c1=O`, the IC50 in assay [1] is 6.6 nM; in assay [2] it was 530 nM; in assay [3] it was 110 nM; in assay [4] it was 570 nM. In the assay filed under Homo sapiens, the Ratio IC50 was found to be 80.

With `CC(C)n1cc(C(=O)Nc2ccc(Oc3ncnc4c3CN(C)C4)c(F)c2)c(=O)n(-c2ccc(F)cc2)c1=O`, the IC50 was 22 nM in assay [1], above 1000 nM in assay [2], 220 nM in assay [3] and 2600 nM in assay [4]. In addition, the Ratio IC50 in the assay filed under Homo sapiens was above 45.

For the origin of these results see ChEMBL document CHEMBL4823291, “Discovery of 5,6,7,8-tetrahydropyrido[3,4-d]pyrimidine derivatives as novel selective Axl inhibitors” (Bioorg Med Chem Lett, 2021).
